Experimental data from ChEMBL document CHEMBL2073981, “Differential regulation of multidrug resistance-associated protein 2 (MRP2) and cytochromes P450 2B1/2 and 3A1/2 in phenobarbital-treated hepatocytes” (Biochem Pharmacol, 2002).

Columns and labels:
[1] = target: T1, ATP-binding cassette sub-family C member 2 (Rattus norvegicus, UniProt Q63120); test: TP_TRANSPORTER: Northern blot in vivo SD rat, liver; assay type: functional, organism-based, Sprague-Dawley
[2] = target: T2, ATP-binding cassette sub-family C member 2 (Homo sapiens, UniProt Q92887); test: (§1) TP_TRANSPORTER: Northern blot in vitro, primary hepatocytes; assay type: functional, cell-based, Hepatocyte
T2 sequence (Q92887 whole entry): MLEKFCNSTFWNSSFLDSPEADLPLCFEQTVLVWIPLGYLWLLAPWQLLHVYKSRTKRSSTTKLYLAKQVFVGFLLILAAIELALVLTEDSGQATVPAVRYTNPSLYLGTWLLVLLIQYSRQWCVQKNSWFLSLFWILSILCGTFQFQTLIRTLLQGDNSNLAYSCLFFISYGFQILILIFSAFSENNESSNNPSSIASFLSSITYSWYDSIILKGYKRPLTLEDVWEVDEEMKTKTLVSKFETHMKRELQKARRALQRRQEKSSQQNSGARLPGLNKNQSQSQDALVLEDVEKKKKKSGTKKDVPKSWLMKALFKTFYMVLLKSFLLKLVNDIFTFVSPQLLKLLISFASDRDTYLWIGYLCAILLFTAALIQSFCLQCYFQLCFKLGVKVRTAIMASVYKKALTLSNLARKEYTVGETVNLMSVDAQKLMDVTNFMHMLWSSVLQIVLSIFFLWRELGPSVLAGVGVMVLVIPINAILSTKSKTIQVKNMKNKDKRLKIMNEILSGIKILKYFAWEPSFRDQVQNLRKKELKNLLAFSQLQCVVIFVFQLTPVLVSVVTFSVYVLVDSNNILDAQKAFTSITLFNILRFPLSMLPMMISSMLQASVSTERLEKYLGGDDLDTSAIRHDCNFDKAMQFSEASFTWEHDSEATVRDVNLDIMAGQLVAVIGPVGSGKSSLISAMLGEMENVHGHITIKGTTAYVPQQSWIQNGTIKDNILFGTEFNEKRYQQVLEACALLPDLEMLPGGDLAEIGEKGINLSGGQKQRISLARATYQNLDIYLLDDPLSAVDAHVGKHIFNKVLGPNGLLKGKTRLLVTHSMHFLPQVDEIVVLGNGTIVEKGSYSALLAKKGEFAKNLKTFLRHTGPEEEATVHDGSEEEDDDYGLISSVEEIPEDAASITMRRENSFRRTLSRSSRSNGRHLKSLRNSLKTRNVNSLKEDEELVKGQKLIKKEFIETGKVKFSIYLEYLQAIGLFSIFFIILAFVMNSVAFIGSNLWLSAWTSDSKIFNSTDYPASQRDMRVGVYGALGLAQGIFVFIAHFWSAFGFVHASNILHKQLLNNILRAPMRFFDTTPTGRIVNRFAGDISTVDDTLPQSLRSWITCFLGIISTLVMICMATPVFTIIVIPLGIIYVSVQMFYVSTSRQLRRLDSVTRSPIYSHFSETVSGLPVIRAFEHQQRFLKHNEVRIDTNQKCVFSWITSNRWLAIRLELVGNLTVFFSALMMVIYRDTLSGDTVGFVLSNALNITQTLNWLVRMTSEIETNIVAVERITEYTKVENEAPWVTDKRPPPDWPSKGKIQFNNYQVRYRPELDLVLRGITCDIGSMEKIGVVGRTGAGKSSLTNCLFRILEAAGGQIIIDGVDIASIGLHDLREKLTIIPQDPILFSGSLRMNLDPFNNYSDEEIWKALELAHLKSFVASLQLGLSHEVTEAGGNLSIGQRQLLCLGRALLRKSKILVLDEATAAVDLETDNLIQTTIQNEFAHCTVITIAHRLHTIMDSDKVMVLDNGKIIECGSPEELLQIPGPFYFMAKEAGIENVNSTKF

[3] = target: T1, ATP-binding cassette sub-family C member 2; test: as §1; assay type: functional, cell-based, Hepatocyte
[4] = target: Multidrug resistance protein 1a (Rattus norvegicus) (UniProt Q6PSM0); test: as §1; assay type: functional, cell-based; conditions: Hepatocyte
Multidrug resistance protein 1a (Rattus norvegicus), sequence (Q6PSM0 as listed by the source): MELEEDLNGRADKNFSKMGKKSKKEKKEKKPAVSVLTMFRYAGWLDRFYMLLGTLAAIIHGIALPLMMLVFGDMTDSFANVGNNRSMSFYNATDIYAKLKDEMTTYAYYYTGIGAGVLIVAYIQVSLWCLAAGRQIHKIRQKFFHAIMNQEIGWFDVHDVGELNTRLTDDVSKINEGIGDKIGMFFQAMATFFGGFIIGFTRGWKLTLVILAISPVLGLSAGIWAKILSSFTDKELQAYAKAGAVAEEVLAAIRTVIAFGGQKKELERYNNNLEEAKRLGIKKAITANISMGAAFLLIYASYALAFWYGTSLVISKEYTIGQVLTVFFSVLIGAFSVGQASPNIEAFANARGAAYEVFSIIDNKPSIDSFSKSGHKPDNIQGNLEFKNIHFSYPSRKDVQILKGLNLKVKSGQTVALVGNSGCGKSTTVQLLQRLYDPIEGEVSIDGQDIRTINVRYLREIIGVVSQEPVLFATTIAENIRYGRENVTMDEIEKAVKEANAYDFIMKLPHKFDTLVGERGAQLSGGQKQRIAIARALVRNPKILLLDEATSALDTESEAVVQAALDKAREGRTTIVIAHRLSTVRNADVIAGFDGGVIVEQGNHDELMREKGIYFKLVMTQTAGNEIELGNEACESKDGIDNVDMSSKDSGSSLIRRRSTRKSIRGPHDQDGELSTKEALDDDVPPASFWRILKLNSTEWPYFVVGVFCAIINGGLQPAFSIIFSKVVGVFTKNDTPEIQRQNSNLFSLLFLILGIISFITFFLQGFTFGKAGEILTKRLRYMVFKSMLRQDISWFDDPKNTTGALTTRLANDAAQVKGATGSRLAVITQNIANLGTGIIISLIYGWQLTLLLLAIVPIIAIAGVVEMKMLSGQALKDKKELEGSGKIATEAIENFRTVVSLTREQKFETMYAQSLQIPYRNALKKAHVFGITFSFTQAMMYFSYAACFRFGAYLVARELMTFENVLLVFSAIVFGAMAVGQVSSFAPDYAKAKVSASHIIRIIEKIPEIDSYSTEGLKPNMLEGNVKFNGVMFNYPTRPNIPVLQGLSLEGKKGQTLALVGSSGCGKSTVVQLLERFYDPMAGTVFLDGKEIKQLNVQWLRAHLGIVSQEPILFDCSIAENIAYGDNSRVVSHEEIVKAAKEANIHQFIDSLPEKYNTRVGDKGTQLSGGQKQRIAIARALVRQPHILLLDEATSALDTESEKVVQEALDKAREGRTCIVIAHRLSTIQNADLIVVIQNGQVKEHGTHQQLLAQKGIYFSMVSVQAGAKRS

[5] = target: T2, ATP-binding cassette sub-family C member 2; test: (§2) TP_TRANSPORTER: Western in vitro, primary hepatocytes; assay type: functional, cell-based, Hepatocyte
[6] = target: T1, ATP-binding cassette sub-family C member 2; test: as §2; assay type: functional, cell-based, Hepatocyte

T1 sequence (Q63120 whole entry): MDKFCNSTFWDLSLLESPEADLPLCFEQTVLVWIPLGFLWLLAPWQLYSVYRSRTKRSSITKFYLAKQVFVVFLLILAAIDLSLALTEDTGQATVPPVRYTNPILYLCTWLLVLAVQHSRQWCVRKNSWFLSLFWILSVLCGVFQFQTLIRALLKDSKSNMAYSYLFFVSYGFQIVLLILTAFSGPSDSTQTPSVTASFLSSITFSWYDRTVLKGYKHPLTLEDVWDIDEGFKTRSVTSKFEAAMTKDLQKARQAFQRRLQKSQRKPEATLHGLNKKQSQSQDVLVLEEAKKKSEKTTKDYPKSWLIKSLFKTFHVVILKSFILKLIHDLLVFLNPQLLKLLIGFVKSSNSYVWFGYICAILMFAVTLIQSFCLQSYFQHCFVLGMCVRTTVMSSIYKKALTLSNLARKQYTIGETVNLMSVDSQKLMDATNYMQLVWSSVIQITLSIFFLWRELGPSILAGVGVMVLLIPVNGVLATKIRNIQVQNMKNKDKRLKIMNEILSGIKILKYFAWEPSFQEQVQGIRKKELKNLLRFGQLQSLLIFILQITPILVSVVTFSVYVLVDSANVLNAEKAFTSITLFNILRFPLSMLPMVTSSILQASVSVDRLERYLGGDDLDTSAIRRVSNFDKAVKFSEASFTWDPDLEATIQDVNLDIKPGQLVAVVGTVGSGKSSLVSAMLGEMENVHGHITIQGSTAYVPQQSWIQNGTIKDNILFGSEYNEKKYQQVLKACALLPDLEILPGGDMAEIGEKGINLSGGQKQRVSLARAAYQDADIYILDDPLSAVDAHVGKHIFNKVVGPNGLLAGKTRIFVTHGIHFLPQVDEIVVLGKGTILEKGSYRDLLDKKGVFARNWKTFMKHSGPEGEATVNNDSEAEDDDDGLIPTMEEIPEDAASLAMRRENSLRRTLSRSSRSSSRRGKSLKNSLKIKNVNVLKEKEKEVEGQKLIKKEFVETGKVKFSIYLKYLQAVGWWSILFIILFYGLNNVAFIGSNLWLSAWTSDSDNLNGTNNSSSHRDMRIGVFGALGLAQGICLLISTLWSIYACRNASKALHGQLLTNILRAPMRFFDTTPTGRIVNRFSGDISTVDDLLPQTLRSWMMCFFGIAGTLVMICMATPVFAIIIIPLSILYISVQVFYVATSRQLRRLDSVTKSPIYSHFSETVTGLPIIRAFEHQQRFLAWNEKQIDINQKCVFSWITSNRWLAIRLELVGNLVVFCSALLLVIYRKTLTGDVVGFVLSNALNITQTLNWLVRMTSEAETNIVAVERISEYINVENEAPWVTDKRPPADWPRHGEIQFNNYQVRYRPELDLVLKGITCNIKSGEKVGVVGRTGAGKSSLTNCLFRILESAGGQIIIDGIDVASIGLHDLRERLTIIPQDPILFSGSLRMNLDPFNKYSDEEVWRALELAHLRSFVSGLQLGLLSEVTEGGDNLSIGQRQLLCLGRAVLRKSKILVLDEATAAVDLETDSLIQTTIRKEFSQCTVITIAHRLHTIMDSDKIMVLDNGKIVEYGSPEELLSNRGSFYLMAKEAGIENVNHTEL

CCC1(c2ccccc2)C(=O)NC(=O)NC1=O [PHENOBARBITAL]
Activity [1]: is not an inducer [-]
Activity [2]: inducer [+]
Activity [3]: inducer [+]
Activity [4]: is not an inducer [-]
Activity [5]: inducer [+]
Activity [6]: inducer [+]
